In PubChem BioAssay (NCI):
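Cells were grown in 96-well plates and exposed to each compound for 48 hours at five concentrations; endpoints were interpolated linearly between bracketing concentrations, or set to the highest concentration if not reached. TGI: total growth inhibition.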

What was measured:
Experiment in all cases: inhibition of tumour cell growth, NCI panel, 48 h
U251 CNS = tested on: U251 CNS
T-47D breast = tested on: T-47D breast
SK-MEL-5 melanoma = tested on: SK-MEL-5 melanoma
SF-539 CNS = tested on: SF-539 CNS
SF-295 CNS = tested on: SF-295 CNS
MDA-MB-231 breast = tested on: MDA-MB-231 breast
RXF 393 renal = tested on: RXF 393 renal
NCI-H226 lung = tested on: NCI-H226 lung
SK-MEL-28 melanoma = tested on: SK-MEL-28 melanoma
A498 renal = tested on: A498 renal
M14 melanoma = tested on: M14 melanoma
OVCAR-8 ovarian = tested on: OVCAR-8 ovarian
HCC-2998 colon = tested on: HCC-2998 colon
UACC-257 melanoma = tested on: UACC-257 melanoma
NCI/ADR-RES ovarian = tested on: NCI/ADR-RES ovarian
CCRF-CEM leukemia = tested on: CCRF-CEM leukemia
KM12 colon = tested on: KM12 colon
CAKI-1 renal = tested on: CAKI-1 renal
MOLT-4 leukemia = tested on: MOLT-4 leukemia
DU-145 prostate = tested on: DU-145 prostate
NCI-H23 lung = tested on: NCI-H23 lung
MALME-3M melanoma = tested on: MALME-3M melanoma
HL-60(TB) leukemia = tested on: HL-60(TB) leukemia
MCF7 breast = tested on: MCF7 breast
SK-MEL-2 melanoma = tested on: SK-MEL-2 melanoma
PC-3 prostate = tested on: PC-3 prostate
SK-OV-3 ovarian = tested on: SK-OV-3 ovarian
786-0 renal = tested on: 786-0 renal
UO-31 renal = tested on: UO-31 renal
RPMI-8226 leukemia = tested on: RPMI-8226 leukemia
OVCAR-4 ovarian = tested on: OVCAR-4 ovarian
TK-10 renal = tested on: TK-10 renal
HOP-62 NSCLC = tested on: HOP-62 NSCLC
HCT-116 colon = tested on: HCT-116 colon
HOP-92 NSCLC = tested on: HOP-92 NSCLC
MDA-MB-435 = tested on: MDA-MB-435
SN12C renal = tested on: SN12C renal
IGROV1 ovarian = tested on: IGROV1 ovarian
SW-620 colon = tested on: SW-620 colon
SNB-19 CNS = tested on: SNB-19 CNS
UACC-62 melanoma = tested on: UACC-62 melanoma
HCT-15 colon = tested on: HCT-15 colon
A549 NSCLC = tested on: A549 NSCLC
EKVX NSCLC = tested on: EKVX NSCLC
SF-268 CNS = tested on: SF-268 CNS
OVCAR-3 ovarian = tested on: OVCAR-3 ovarian
SNB-75 CNS = tested on: SNB-75 CNS
NCI-H460 lung = tested on: NCI-H460 lung
NCI-H522 lung = tested on: NCI-H522 lung
ACHN renal = tested on: ACHN renal
LOX IMVI melanoma = tested on: LOX IMVI melanoma
SR leukemia = tested on: SR leukemia
MDA-N = tested on: MDA-N
HT29 colon = tested on: HT29 colon
HS 578T breast = tested on: HS 578T breast
OVCAR-5 ovarian = tested on: OVCAR-5 ovarian
BT-549 breast = tested on: BT-549 breast
K-562 leukemia = tested on: K-562 leukemia
COLO 205 colon = tested on: COLO 205 colon

Work on `CC12CCC(C(Br)(Br)C1=O)C2(C)C` (configuration not stated) yielded a TGI (U251 CNS) of 0.224 µM, a TGI (T-47D breast) of 1.02 µM and a TGI (SK-MEL-5 melanoma) of 4.74 µM. The TGI (SF-539 CNS) was 16.9 µM, the TGI (SF-295 CNS) was 22.4 µM and the TGI (MDA-MB-231 breast) was 1.51 µM. For the same compound, the TGI (RXF 393 renal) was 2.54 µM, the TGI (NCI-H226 lung) was 8.64 µM and the TGI (SK-MEL-28 melanoma) was 6.46 µM. The TGI (A498 renal) was 17.5 µM, the TGI (M14 melanoma) was 3.98 µM and the TGI (OVCAR-8 ovarian) was 11.3 µM. The TGI (HCC-2998 colon) was 4.91 µM, the TGI (UACC-257 melanoma) was 16.7 µM and the TGI (NCI/ADR-RES ovarian) was 1.06 µM. It also gave a TGI (CCRF-CEM leukemia) of 0.196 µM, a TGI (KM12 colon) of 16.1 µM and a TGI (CAKI-1 renal) of 14.9 µM. For the same compound, the TGI (MOLT-4 leukemia) was 2.53 µM, the TGI (DU-145 prostate) was 37.1 µM and the TGI (NCI-H23 lung) was 2.21 µM. For the same compound, the TGI (MALME-3M melanoma) was 1 µM, the TGI (HL-60(TB) leukemia) was 0.149 µM and the TGI (MCF7 breast) was > 36.8 µM. The TGI (SK-MEL-2 melanoma) was 0.98 µM, the TGI (PC-3 prostate) was 7.98 µM and the TGI (SK-OV-3 ovarian) was > 31.6 µM. For the same compound, the TGI (786-0 renal) was 3.84 µM, the TGI (UO-31 renal) was 3.25 µM and the TGI (RPMI-8226 leukemia) was 1.78 µM. For the same compound, the TGI (OVCAR-4 ovarian) was 5.58 µM, the TGI (TK-10 renal) was 11 µM and the TGI (HOP-62 NSCLC) was 13.6 µM. For the same compound, the TGI (HCT-116 colon) was 3.71 µM, the TGI (HOP-92 NSCLC) was 2.81 µM and the TGI (MDA-MB-435) was 2.24 µM. The TGI (SN12C renal) was 5.84 µM, the TGI (IGROV1 ovarian) was 0.516 µM and the TGI (SW-620 colon) was 0.71 µM. For the same compound, the TGI (SNB-19 CNS) was > 57.6 µM, the TGI (UACC-62 melanoma) was 10.1 µM and the TGI (HCT-15 colon) was 3.57 µM. For the same compound, the TGI (A549 NSCLC) was > 100 µM, the TGI (EKVX NSCLC) was 2.81 µM and the TGI (SF-268 CNS) was 1.22 µM. The TGI (OVCAR-3 ovarian) was 4.1 µM, the TGI (SNB-75 CNS) was 11.6 µM and the TGI (NCI-H460 lung) was 27.2 µM. It also gave a TGI (NCI-H522 lung) of 0.155 µM, a TGI (ACHN renal) of 7.69 µM and a TGI (LOX IMVI melanoma) of 11.3 µM. The TGI (SR leukemia) was 12.9 µM, the TGI (MDA-N) was 2.65 µM and the TGI (HT29 colon) was 3.19 µM. For the same compound, the TGI (HS 578T breast) was 9.29 µM, the TGI (OVCAR-5 ovarian) was 6.57 µM and the TGI (BT-549 breast) was 2.68 µM. For the same compound, the TGI (K-562 leukemia) was 13.1 µM and the TGI (COLO 205 colon) was 14.7 µM.

`Cn1c(=O)[nH]c2nccnc2c1=O` was tested, and the TGI (U251 CNS) was > 10 µM, the TGI (T-47D breast) was > 10 µM and the TGI (SK-MEL-5 melanoma) was > 10 µM. For the same compound, the TGI (SF-539 CNS) was > 10 µM, the TGI (SF-295 CNS) was > 10 µM and the TGI (MDA-MB-231 breast) was > 10 µM. The TGI (RXF 393 renal) was > 10 µM, the TGI (NCI-H226 lung) was > 10 µM and the TGI (SK-MEL-28 melanoma) was > 10 µM. For the same compound, the TGI (A498 renal) was > 10 µM, the TGI (M14 melanoma) was > 10 µM and the TGI (OVCAR-8 ovarian) was > 10 µM. For the same compound, the TGI (HCC-2998 colon) was > 10 µM, the TGI (UACC-257 melanoma) was > 10 µM and the TGI (NCI/ADR-RES ovarian) was > 10 µM. For the same compound, the TGI (CCRF-CEM leukemia) was > 10 µM, the TGI (KM12 colon) was > 10 µM and the TGI (CAKI-1 renal) was > 10 µM. The TGI (MOLT-4 leukemia) was > 10 µM, the TGI (DU-145 prostate) was > 10 µM and the TGI (NCI-H23 lung) was > 10 µM. The TGI (MALME-3M melanoma) was > 10 µM, the TGI (HL-60(TB) leukemia) was > 10 µM and the TGI (MCF7 breast) was > 10 µM. The TGI (SK-MEL-2 melanoma) was > 10 µM, the TGI (PC-3 prostate) was > 10 µM and the TGI (SK-OV-3 ovarian) was > 10 µM. For the same compound, the TGI (786-0 renal) was > 10 µM, the TGI (UO-31 renal) was > 10 µM and the TGI (RPMI-8226 leukemia) was > 10 µM. The TGI (OVCAR-4 ovarian) was > 10 µM, the TGI (TK-10 renal) was > 10 µM and the TGI (HOP-62 NSCLC) was > 10 µM. For the same compound, the TGI (HCT-116 colon) was > 10 µM, the TGI (HOP-92 NSCLC) was > 10 µM and the TGI (MDA-MB-435) was > 10 µM. For the same compound, the TGI (SN12C renal) was > 10 µM, the TGI (IGROV1 ovarian) was > 10 µM and the TGI (SW-620 colon) was > 10 µM. The TGI (SNB-19 CNS) was > 10 µM, the TGI (UACC-62 melanoma) was > 10 µM and the TGI (HCT-15 colon) was > 10 µM. For the same compound, the TGI (A549 NSCLC) was > 10 µM, the TGI (EKVX NSCLC) was > 10 µM and the TGI (SF-268 CNS) was > 10 µM. The TGI (OVCAR-3 ovarian) was > 10 µM, the TGI (SNB-75 CNS) was > 10 µM and the TGI (NCI-H460 lung) was > 10 µM. The TGI (NCI-H522 lung) was > 10 µM, the TGI (ACHN renal) was > 10 µM and the TGI (LOX IMVI melanoma) was > 10 µM. The TGI (SR leukemia) was > 10 µM, the TGI (MDA-N) was > 10 µM and the TGI (HT29 colon) was > 10 µM. For the same compound, the TGI (HS 578T breast) was > 10 µM, the TGI (OVCAR-5 ovarian) was > 10 µM and the TGI (BT-549 breast) was > 10 µM. The TGI (K-562 leukemia) was > 10 µM and the TGI (COLO 205 colon) was > 10 µM.

For `CC(C)=CCc1c(O)c(CC=C(C)C)c2oc(-c3ccc(O)cc3O)c(CC=C(C)C)c(=O)c2c1O`, the TGI (U251 CNS) was 22.8 µM, the TGI (T-47D breast) was 12.8 µM and the TGI (SK-MEL-5 melanoma) was 23 µM. The TGI (SF-539 CNS) was 32.7 µM, the TGI (SF-295 CNS) was 20.3 µM and the TGI (MDA-MB-231 breast) was 27.6 µM. It also gave a TGI (RXF 393 renal) of 14.6 µM, a TGI (NCI-H226 lung) of 47.6 µM and a TGI (SK-MEL-28 melanoma) of 26.6 µM. It also gave a TGI (A498 renal) of 27.3 µM, a TGI (M14 melanoma) of 22.5 µM and a TGI (OVCAR-8 ovarian) of 19.7 µM. The TGI (HCC-2998 colon) was 11.7 µM, the TGI (UACC-257 melanoma) was 25.6 µM and the TGI (NCI/ADR-RES ovarian) was 53.4 µM. It also gave a TGI (CCRF-CEM leukemia) of 5.83 µM, a TGI (KM12 colon) of 16.7 µM and a TGI (CAKI-1 renal) of 25.4 µM. It also gave a TGI (MOLT-4 leukemia) of 14.6 µM, a TGI (DU-145 prostate) of 25.2 µM and a TGI (NCI-H23 lung) of 22 µM. The TGI (MALME-3M melanoma) was 33.4 µM, the TGI (HL-60(TB) leukemia) was 21.7 µM and the TGI (MCF7 breast) was 18.3 µM. It also gave a TGI (SK-MEL-2 melanoma) of 12.8 µM, a TGI (PC-3 prostate) of 18.4 µM and a TGI (SK-OV-3 ovarian) of 26.2 µM. It also gave a TGI (786-0 renal) of 21.4 µM, a TGI (UO-31 renal) of 21.1 µM and a TGI (RPMI-8226 leukemia) of 10.9 µM. For the same compound, the TGI (OVCAR-4 ovarian) was 18.1 µM, the TGI (TK-10 renal) was 21.2 µM and the TGI (HOP-62 NSCLC) was 23.4 µM. The TGI (HCT-116 colon) was 17 µM, the TGI (HOP-92 NSCLC) was 23 µM and the TGI (MDA-MB-435) was 16.7 µM. For the same compound, the TGI (SN12C renal) was 21.1 µM, the TGI (IGROV1 ovarian) was 23.6 µM and the TGI (SW-620 colon) was 23.3 µM. For the same compound, the TGI (SNB-19 CNS) was 25.6 µM, the TGI (UACC-62 melanoma) was 20.3 µM and the TGI (HCT-15 colon) was 23.8 µM. For the same compound, the TGI (A549 NSCLC) was 24.2 µM, the TGI (EKVX NSCLC) was 27.9 µM and the TGI (SF-268 CNS) was > 53.2 µM. It also gave a TGI (OVCAR-3 ovarian) of 19.6 µM, a TGI (SNB-75 CNS) of 22.7 µM and a TGI (NCI-H460 lung) of 17.8 µM. The TGI (NCI-H522 lung) was 24.9 µM, the TGI (ACHN renal) was 20.9 µM and the TGI (LOX IMVI melanoma) was 22.5 µM. It also gave a TGI (SR leukemia) of 9.88 µM, a TGI (MDA-N) of 20.4 µM and a TGI (HT29 colon) of 22.8 µM. For the same compound, the TGI (HS 578T breast) was 45.6 µM, the TGI (OVCAR-5 ovarian) was 28.3 µM and the TGI (BT-549 breast) was 21.6 µM. For the same compound, the TGI (K-562 leukemia) was 27.4 µM and the TGI (COLO 205 colon) was > 59.5 µM.
